{
  "source": "paper PMC11864979",
  "about": "“First-in-class ultralong-target-residence-time p38α inhibitors as a mitosis-targeted therapy for colorectal cancer” (Nature Cancer, 2025)",
  "assay_in_all_cases": "selectivity profiling in a panel of 340 wild-type kinases (Reaction Biology Europe)",
  "type_in_all_cases": "binding",
  "key": {"340 wild-type kinases [1]": {"biological_target": "T1, 340 wild-type kinases (Homo sapiens, UniProt Q96GD4)", "T1 construct": "purchased Reaction Biology Europe", "T1 sequence (Q96GD4 whole entry)": "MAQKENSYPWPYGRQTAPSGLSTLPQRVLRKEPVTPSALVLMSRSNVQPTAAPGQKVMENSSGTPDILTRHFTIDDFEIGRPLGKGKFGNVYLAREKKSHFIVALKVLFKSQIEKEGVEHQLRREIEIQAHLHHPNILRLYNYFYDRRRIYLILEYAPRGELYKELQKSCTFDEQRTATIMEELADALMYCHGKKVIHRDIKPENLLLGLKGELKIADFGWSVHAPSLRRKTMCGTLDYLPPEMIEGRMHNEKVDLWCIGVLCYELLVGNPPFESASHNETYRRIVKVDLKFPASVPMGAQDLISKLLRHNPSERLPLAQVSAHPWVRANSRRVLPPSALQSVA"}, "340 wild-type kinases [2]": {"biological_target": "T2, 340 wild-type kinases (Homo sapiens, UniProt Q6P5Z2)", "T2 construct": "purchased Reaction Biology Europe", "T2 sequence (Q6P5Z2 whole entry)": "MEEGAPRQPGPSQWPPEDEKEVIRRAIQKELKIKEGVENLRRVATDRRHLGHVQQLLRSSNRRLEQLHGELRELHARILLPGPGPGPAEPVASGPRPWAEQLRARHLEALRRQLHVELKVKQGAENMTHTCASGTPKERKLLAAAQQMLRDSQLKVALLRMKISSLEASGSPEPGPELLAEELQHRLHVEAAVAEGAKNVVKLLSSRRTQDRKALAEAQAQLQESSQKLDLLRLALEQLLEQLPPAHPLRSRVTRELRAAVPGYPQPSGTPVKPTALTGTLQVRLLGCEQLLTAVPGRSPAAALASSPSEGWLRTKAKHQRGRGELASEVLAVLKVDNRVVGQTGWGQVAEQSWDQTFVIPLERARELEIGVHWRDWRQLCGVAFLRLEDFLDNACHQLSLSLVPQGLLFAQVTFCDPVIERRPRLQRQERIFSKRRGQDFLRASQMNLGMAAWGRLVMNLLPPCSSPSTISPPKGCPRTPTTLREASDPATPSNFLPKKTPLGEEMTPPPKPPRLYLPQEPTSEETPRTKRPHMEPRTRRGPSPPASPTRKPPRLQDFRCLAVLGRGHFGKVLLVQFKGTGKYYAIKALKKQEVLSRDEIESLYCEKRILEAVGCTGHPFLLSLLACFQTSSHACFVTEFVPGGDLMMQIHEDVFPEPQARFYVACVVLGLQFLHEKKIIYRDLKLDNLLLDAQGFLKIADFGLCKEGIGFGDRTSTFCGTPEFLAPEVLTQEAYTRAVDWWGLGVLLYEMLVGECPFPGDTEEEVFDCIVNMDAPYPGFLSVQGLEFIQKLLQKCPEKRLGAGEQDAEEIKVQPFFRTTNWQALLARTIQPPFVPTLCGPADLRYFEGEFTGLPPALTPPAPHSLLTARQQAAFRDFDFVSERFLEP"}, "340 wild-type kinases [3]": {"biological_target": "T3, 340 wild-type kinases (Homo sapiens, UniProt P15735)", "T3 construct": "purchased Reaction Biology Europe", "T3 sequence (P15735 1-406)": "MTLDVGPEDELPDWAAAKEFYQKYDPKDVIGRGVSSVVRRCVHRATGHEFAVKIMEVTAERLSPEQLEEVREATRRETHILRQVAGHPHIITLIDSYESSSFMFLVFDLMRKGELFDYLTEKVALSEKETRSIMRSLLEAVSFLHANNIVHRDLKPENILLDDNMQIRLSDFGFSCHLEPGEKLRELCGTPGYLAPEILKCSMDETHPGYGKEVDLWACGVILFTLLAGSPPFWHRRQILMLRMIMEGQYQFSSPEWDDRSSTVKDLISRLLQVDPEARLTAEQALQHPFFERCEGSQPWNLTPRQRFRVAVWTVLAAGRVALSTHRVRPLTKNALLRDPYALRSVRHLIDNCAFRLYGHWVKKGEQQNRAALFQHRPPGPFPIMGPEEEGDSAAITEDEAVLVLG"}, "340 wild-type kinases [4]": {"biological_target": "T4, 340 wild-type kinases (Homo sapiens, UniProt Q06418)", "T4 construct": "purchased Reaction Biology Europe", "T4 sequence (Q06418 41-890)": "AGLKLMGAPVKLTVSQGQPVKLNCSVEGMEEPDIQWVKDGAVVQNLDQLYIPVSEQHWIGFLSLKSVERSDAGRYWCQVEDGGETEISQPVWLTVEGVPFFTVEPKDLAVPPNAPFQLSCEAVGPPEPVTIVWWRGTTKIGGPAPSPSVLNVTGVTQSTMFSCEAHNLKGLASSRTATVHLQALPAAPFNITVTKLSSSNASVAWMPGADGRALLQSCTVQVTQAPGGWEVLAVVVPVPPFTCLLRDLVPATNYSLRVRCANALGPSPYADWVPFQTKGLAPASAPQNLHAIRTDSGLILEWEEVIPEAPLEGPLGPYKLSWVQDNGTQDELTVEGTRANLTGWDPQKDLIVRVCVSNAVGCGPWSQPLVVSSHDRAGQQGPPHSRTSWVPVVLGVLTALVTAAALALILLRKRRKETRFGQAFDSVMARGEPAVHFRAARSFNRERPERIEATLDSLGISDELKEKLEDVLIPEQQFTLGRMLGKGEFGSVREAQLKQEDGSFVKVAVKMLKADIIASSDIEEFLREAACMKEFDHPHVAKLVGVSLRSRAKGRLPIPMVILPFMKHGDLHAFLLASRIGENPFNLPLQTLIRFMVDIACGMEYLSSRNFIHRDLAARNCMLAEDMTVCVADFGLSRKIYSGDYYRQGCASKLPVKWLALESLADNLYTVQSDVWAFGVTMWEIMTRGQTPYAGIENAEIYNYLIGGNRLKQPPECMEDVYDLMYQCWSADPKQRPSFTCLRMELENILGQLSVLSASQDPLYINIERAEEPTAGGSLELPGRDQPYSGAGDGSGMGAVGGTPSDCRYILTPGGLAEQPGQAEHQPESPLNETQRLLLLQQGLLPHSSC"}, "340 wild-type kinases [5]": {"biological_target": "T5, 340 wild-type kinases (Homo sapiens, UniProt P52333)", "T5 construct": "purchased Reaction Biology Europe", "T5 sequence (P52333 1-1124)": "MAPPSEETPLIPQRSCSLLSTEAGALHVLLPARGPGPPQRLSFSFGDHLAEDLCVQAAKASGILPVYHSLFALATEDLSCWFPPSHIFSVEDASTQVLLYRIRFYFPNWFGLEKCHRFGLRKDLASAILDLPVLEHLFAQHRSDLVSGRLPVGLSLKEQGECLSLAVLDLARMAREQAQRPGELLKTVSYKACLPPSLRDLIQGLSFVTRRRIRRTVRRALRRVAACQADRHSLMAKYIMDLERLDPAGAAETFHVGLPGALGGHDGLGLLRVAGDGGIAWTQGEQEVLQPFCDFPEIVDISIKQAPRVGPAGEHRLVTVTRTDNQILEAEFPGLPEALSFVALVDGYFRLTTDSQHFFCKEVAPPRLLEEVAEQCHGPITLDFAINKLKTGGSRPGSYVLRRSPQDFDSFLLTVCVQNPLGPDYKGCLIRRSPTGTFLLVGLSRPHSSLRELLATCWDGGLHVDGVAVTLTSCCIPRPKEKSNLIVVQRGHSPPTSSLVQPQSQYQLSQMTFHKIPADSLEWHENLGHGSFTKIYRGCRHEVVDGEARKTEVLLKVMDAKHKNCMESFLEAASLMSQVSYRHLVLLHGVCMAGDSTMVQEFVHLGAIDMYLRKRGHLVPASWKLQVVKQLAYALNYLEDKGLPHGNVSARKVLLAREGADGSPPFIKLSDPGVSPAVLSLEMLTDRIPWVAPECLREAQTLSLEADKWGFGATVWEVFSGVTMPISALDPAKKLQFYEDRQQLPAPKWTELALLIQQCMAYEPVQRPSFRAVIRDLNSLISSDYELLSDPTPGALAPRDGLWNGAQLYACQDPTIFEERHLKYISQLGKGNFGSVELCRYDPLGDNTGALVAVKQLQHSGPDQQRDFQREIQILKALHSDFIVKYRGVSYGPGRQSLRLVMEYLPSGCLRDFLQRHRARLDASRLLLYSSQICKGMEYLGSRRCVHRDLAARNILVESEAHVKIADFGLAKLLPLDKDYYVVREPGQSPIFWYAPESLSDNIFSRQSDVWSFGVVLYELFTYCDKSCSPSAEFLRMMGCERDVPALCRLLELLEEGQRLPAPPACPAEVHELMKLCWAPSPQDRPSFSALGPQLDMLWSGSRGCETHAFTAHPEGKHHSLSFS"}, "340 wild-type kinases [6]": {"biological_target": "T6, 340 wild-type kinases (Homo sapiens, UniProt O75716)", "T6 construct": "purchased Reaction Biology Europe", "T6 sequence (O75716 whole entry)": "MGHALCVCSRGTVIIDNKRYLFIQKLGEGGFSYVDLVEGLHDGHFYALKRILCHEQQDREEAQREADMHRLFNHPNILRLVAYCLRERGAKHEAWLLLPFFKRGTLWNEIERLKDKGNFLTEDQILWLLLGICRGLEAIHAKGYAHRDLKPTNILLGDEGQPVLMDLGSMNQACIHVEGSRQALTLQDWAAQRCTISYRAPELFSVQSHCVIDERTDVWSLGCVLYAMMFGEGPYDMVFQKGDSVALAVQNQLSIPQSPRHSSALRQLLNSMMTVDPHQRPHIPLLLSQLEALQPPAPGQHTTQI"}},
  "note": "Like-named read-outs stand apart in the source and are kept apart here.",
  "data": [
    {"smiles": "CNC(=O)c1ccc2c(c1)C(=O)c1ccc(Nc3ccc(F)c(NC(=O)C4CC4)c3)cc1CC2", "note": "[Compound 2015]", "values": [
      {"measurement": "remaining activity at 0.2 µM", "setting": "340 wild-type kinases [1]; 0.2 µM 2015, read-out: AuroraB residual activity", "result": 120, "unit": "%"},
      {"measurement": "remaining activity at 1 µM", "setting": "340 wild-type kinases [1]; 1 µM 2015, read-out: AuroraB residual activity", "result": 112, "unit": "%"},
      {"measurement": "remaining activity at 0.2 µM", "setting": "340 wild-type kinases [1]; AuroraB, 0.2 µM, read-out: residual activity", "result": 120, "unit": "%"},
      {"measurement": "remaining activity at 1 µM", "setting": "340 wild-type kinases [1]; AuroraB, 1 µM, read-out: residual activity", "result": 112, "unit": "%"},
      {"measurement": "remaining activity at 0.2 µM", "setting": "340 wild-type kinases [2]; 0.2 µM 2015, read-out: PKN3 residual activity", "result": 84.5, "unit": "%"},
      {"measurement": "remaining activity at 1 µM", "setting": "340 wild-type kinases [2]; 1 µM 2015, read-out: PKN3 residual activity", "result": 95.6, "unit": "%"},
      {"measurement": "remaining activity at 0.2 µM", "setting": "340 wild-type kinases [2]; PKN3, 0.2 µM, read-out: residual activity", "result": 84.5, "unit": "%"},
      {"measurement": "remaining activity at 1 µM", "setting": "340 wild-type kinases [2]; PKN3, 1 µM, read-out: residual activity", "result": 95.6, "unit": "%"},
      {"measurement": "remaining activity at 0.2 µM", "setting": "340 wild-type kinases [3]; 0.2 µM 2015, read-out: PHKG2 residual activity", "result": 102, "unit": "%"},
      {"measurement": "remaining activity at 1 µM", "setting": "340 wild-type kinases [3]; 1 µM 2015, read-out: PHKG2 residual activity", "result": 98.8, "unit": "%"},
      {"measurement": "remaining activity at 0.2 µM", "setting": "340 wild-type kinases [3]; PHKG2, 0.2 µM, read-out: residual activity", "result": 102, "unit": "%"},
      {"measurement": "remaining activity at 1 µM", "setting": "340 wild-type kinases [3]; PHKG2, 1 µM, read-out: residual activity", "result": 98.8, "unit": "%"},
      {"measurement": "remaining activity at 0.2 µM", "setting": "340 wild-type kinases [4]; 0.2 µM 2015, read-out: TYRO3 residual activity", "result": 93.9, "unit": "%"},
      {"measurement": "remaining activity at 1 µM", "setting": "340 wild-type kinases [4]; 1 µM 2015, read-out: TYRO3 residual activity", "result": 86.6, "unit": "%"},
      {"measurement": "remaining activity at 0.2 µM", "setting": "340 wild-type kinases [4]; TYRO3, 0.2 µM, read-out: residual activity", "result": 94, "unit": "%"},
      {"measurement": "remaining activity at 1 µM", "setting": "340 wild-type kinases [4]; TYRO3, 1 µM, read-out: residual activity", "result": 86.6, "unit": "%"},
      {"measurement": "remaining activity at 0.2 µM", "setting": "340 wild-type kinases [5]; 0.2 µM 2015, read-out: JAK3 residual activity", "result": 105, "unit": "%"},
      {"measurement": "remaining activity at 1 µM", "setting": "340 wild-type kinases [5]; 1 µM 2015, read-out: JAK3 residual activity", "result": 110, "unit": "%"},
      {"measurement": "remaining activity at 0.2 µM", "setting": "340 wild-type kinases [5]; JAK3, 0.2 µM, read-out: residual activity", "result": 105, "unit": "%"},
      {"measurement": "remaining activity at 1 µM", "setting": "340 wild-type kinases [5]; JAK3, 1 µM, read-out: residual activity", "result": 110, "unit": "%"},
      {"measurement": "remaining activity at 0.2 µM", "setting": "340 wild-type kinases [6]; 0.2 µM 2015, read-out: TSF1 residual activity", "result": 95.7, "unit": "%"},
      {"measurement": "remaining activity at 1 µM", "setting": "340 wild-type kinases [6]; 1 µM 2015, read-out: TSF1 residual activity", "result": 85.7, "unit": "%"},
      {"measurement": "remaining activity at 0.2 µM", "setting": "340 wild-type kinases [6]; TSF1, 0.2 µM, read-out: residual activity", "result": 95.7, "unit": "%"},
      {"measurement": "remaining activity at 1 µM", "setting": "340 wild-type kinases [6]; TSF1, 1 µM, read-out: residual activity", "result": 85.7, "unit": "%"}
    ]}
  ]
}
